The target in one assay is JAK1 (Homo sapiens, UniProt P23458). In words: JAK kinase inhibitor activity detection (ULight-JAK-1 substrate, Eu-labeled anti-phosphotyrosine antibody), JAK1. The settings on record: JAK1 10 nM, substrate 50 nM, ATP 40 uM, 2 h room temperature. Format: biochemical. The procedure:
(§1) Activity Detection of Small Molecule Inhibitors of JAK Kinase
(§2) • (1) kinase reaction buffer • Prepare the kinase reaction buffer with the following components: 50 mM HEPES, pH 7.5, 1 mM EGTA, 10 mM MgCl2, 2 mM DTT, 0.01% Tween20 • (2) 1× detection buffer • To prepare detection buffer, dilute 10× detection buffer to 1× with deionized water 9:1 • (3) 4× kinase solution • Dilute JAK to 4× final concentration by JAK reaction buffer (JAK1: 40 nM, JAK2: 0.5 nM) • (4) 4× substrate solution • Dilute ULight™-JAK-1 (Tyr1023) substrate to 200 nM by kinase reaction buffer (final concentration: 50 nM) • (5) 4×ATP solution • Dilute ATP to 4× final concentration by kinase reaction buffer (JAK1: 160 μM, JAK2: 40 μM) • (6) 4× compound testing solution • DMSO dissolves the testing compound into 10 mM stock solution, then prepared to the desired concentration with 3-fold serial dilution, and 10 concentration points were set for each compound. Besides, the final concentration range of the testing compound is: 10 μM-0.5 nM • (7) 4× enzyme reaction termination liquid • 1× test buffer dissolves EDTA to 40 mM (EDTA final concentration: 10 mM) • (8) 4× antibody detection solution • 1× test buffer dilutes Eu labeled antibody (anti-phosphotyrosine (PT66)) to 8 nM (antibody final concentration: 2 nM) 2. Experimental Process • (1) Successively add 2.5 μL 4×JAK solution, and 2.5 μL of diluted 4× test compound solution in different concentrations to the 384 microporous plate, and set 2 multi-wells for each concentration. Meanwhile, set enzyme solution blank control group and negative control group (DMSO group). • (2) Shake the 384-hole plate, mix enzymes and compounds, centrifuge at 1000 rpm for 1 minute, and incubate at room temperature for 60 minutes • (3) Add 2.5 μL of 4× substrate solution to a 384-hole plate and centrifuge at 1000 rpm for 1 min • (4) Add 2.5 μL of 4×ATP solution to the 384 multi-well plate and centrifuge at 1000 rpm for 1 minute to initiate the enzyme reaction. • (5) JAK1 reacts at room temperature for 2 h, and JAK2 react at room temperature for 1 h. • (6) The final concentrations of each group of the JAK1 reaction are: JAK1: 10 nM, substrate: 50 nM, ATP: 40 uM, and the final concentration range of the test compound is: 10 μM-0.5 nM • The final concentrations of each group of the JAK2 reaction are: JAK2: 0.125 nM, substrate: 50 nM, ATP: 10 μM, and the final concentration range of test compounds is: 10 μM-0.5 nM • (7) After the enzyme reaction, add 5 μL of 4× enzyme reaction stop solution to each well of the 384-well plate with 1000 rpm, centrifuge for 1 minute, and incubate at room temperature for 5 min. • (8) Add 5 μL of 4× detection antibody solution to each well of a 384-well plate (final concentration of detection antibody is 2 nM) with 1000 rpm, centrifuge for 1 minute, and incubate at room temperature for 1 h. • (10) After antibody incubation, measure the signal value of each well on an Envision plate reader 3. Data Analysis • (1) Taking the enzyme solution blank control group as 100% inhibition rate and the negative control group (DMSO group) as 0% inhibition rate, calculate the percentage inhibition rate corresponding to each concentration of the tested compounds • (2) In GraphPad Prism software, nonlinear regression analysis is performed on the concentration logarithm of the test compound and the corresponding percentage inhibition rate to obtain the half-inhibitory concentration (IC50) of the test compound.

A further assay has as its target JAK2 (Homo sapiens, UniProt O60674). In words: JAK kinase inhibitor activity detection (ULight-JAK-1 substrate, Eu-labeled anti-phosphotyrosine antibody), JAK2. The class given is biochemical. The settings on record: JAK2 0.125 nM, substrate 50 nM, ATP 10 μM, 1 h room temperature. The procedure:
as §1, §2

JAK1, sequence (P23458 whole entry, species assumed): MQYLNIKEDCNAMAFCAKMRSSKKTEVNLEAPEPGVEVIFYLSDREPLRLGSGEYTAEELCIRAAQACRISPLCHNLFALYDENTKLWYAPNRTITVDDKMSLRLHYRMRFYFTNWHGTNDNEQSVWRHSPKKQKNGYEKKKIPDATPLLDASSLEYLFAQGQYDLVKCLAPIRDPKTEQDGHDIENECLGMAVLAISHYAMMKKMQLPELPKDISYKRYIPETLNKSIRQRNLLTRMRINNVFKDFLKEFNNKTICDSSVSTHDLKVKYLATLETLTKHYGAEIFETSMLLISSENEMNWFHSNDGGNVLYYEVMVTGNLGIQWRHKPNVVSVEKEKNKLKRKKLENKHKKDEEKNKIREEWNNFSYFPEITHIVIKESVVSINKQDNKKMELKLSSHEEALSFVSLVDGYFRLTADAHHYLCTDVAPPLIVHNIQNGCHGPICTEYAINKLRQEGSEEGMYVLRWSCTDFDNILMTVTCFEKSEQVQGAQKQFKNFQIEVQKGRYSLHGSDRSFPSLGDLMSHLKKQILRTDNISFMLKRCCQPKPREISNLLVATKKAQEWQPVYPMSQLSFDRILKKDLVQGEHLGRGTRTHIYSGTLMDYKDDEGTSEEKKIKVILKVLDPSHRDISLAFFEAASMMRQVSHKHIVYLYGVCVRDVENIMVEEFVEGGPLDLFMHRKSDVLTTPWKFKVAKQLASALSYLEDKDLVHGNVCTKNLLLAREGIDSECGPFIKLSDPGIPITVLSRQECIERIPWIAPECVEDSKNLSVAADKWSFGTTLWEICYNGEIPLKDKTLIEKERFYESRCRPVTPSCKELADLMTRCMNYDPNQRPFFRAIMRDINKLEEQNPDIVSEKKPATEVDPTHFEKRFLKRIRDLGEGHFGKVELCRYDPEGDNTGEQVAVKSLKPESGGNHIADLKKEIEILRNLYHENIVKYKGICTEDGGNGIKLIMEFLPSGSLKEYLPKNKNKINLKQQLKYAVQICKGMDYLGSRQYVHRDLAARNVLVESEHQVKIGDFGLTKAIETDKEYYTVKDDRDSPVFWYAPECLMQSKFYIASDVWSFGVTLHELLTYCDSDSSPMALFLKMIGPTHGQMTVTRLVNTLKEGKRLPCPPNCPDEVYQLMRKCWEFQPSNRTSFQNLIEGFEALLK
JAK2, sequence (O60674 whole entry, species assumed): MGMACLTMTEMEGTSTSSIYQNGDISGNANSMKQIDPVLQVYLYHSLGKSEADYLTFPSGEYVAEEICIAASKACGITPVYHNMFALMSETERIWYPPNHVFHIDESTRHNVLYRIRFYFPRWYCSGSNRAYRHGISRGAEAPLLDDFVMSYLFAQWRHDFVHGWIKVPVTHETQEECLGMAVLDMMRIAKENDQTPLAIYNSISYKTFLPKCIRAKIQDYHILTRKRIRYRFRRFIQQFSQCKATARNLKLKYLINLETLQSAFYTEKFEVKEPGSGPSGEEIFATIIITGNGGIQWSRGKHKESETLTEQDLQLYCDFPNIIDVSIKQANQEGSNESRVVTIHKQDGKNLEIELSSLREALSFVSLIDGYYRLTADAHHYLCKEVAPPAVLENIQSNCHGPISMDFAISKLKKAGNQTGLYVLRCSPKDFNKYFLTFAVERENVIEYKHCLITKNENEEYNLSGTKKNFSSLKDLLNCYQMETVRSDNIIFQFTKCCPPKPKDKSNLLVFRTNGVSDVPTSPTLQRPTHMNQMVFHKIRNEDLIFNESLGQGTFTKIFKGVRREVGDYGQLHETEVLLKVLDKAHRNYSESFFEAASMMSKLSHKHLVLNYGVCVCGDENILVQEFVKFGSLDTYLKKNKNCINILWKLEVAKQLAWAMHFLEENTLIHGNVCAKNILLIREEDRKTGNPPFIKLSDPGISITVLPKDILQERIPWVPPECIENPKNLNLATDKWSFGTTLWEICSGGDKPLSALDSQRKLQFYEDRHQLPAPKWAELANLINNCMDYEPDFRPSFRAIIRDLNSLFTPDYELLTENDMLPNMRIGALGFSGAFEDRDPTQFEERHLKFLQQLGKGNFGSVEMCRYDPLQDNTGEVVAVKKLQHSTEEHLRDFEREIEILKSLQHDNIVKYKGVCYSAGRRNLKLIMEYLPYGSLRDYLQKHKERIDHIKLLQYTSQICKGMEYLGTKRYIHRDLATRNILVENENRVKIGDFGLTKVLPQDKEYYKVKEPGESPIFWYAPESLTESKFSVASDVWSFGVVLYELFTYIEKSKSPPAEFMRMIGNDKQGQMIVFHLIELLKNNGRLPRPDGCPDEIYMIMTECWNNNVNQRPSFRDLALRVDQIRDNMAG

In the case of `N#CCC1CCN(n2c(CCO)nc3cnc4[nH]ccc4c32)CC1` [Example 6, 2-(1-(2-(2-hydroxyethyl)imidazo[4,5-d]pyrrolo[2,3-b]pyridine-1(6H)-yl)piperidin-4-yl)acetonitrile], the figures for the IC50 against JAK1 and against JAK2 were 0.66 nM and 3.89 nM, respectively.
As for `C[C@@H](O)c1nc2cnc3[nH]ccc3c2n1N1C2CCC1CC(=CC#N)C2` [Example 22, 2-(8-(2-((R)-1-hydroxyethyl)imidazo[4,5-d]pyrrolo[2,3-b]pyridin-1(6H)-yl)-8-azabicyclo[3.2.1]octan-3-ylidene)acetonitrile], the IC50 (commonly the point on the concentration scale where inhibition reaches its midpoint) against JAK1 was found to be 1.6 nM; against JAK2, 4.04 nM.
As for `N#CCCN1CCN(n2cnc3cnc4[nH]ccc4c32)CC1` [Example 25, 3-(4-(imidazo[4,5-d]pyrrolo[2,3-b]pyridin-1(6H)-yl)piperazin-1-yl)propanenitrile], the IC50 on JAK1 was 5.2 nM; at JAK2 it was 5.3 nM.
Regarding `N#CCCC1CCN(n2cnc3cnc4[nH]ccc4c32)CC1` [Example 11], the results for the IC50 at JAK1 and at JAK2 were 0.57 nM and 2.98 nM, respectively.
Turning to `N#CCC1CC2CCC(C1)N2n1cnc2cnc3[nH]ccc3c21` (stereo not drawn) [Example 21, 2-(8-(imidazo[4,5-d]pyrrolo[2,3-b]pyridin-1(6H)-yl)-8-azabicyclo[3.2.1]octan-3-yl)acetonitrile], the figures for the IC50 on JAK1 and against JAK2 were 0.92 nM and 4.77 nM, respectively.
In the case of `CCC1CN(C(=O)CC#N)CN1n1cnc2cnc3[nH]ccc3c21` (stereo not drawn) [Example 28], the IC50 at JAK1 stood at 3.5 nM; against JAK2, 13.1 nM.
Turning to `CC[C@@H]1CN(C(=O)CC#N)CN1n1cnc2cnc3[nH]ccc3c21` [Example 32, (R)-3-(4-ethyl-3-(imidazo[4,5-d]pyrrolo[2,3-b]pyridine-1(6H)-yl)imidazoline-1-yl)-3-oxopropionitrile], the IC50 against JAK1 worked out at 6.8 nM; against JAK2, 15.3 nM.
`CC(C)(C#N)C1CCN(n2cnc3cnc4[nH]ccc4c32)CC1` [Example 14, 2-(1-(imidazo[4,5-d]pyrrolo[2,3-b]pyridine-1(6H)-yl)piperidine-4-yl)-2-methyl propionitrile]: the IC50 against JAK1 worked out at 13.5 nM; against JAK2 it was 7.5 nM.
Turning to `CS(=O)(=O)NCc1nc2cnc3[nH]ccc3c2n1N1CCC(CC#N)CC1` [Example 10, N-((1-(4-(cyanomethyl)piperidin-1-yl)-1,6-dihydroimidazole[4,5-d]pyrrolo[2,3-b]pyridine-2-yl)methyl)methanesulfonamide], the IC50 against JAK1 stood at 0.8 nM; on JAK2 it was 6.1 nM.
`N#CCC1CCN(n2c(CO)nc3cnc4[nH]ccc4c32)CC1` [Example 5, 2-(1-(2-(hydroxymethyl)imidazo[4,5-d]pyrrolo[2,3-b]pyridine-1(6H)-yl)piperidin-4-yl)acetonitrile]: the IC50 against JAK1 came out at 0.28 nM; on JAK2 it was 1.45 nM.
For the molecule `Cc1nc2cnc3[nH]ccc3c2n1N1CCC(CC#N)CC1` [Example 3, 2-(1-(methylimidazo[4,5-d]pyrrolo[2,3-b]pyridine-1(6H)-yl)piperidin-4-yl)acetonitrile], the IC50 against JAK1 stood at 0.17 nM; on JAK2, 0.28 nM.
In the case of `N#CCC(=O)N1CCN(n2cnc3cnc4[nH]ccc4c32)CC1` [Example 26, 3-(4-(imidazo[4,5-d]pyrrorolo[2,3-b]pyridin-1(6H)-yl)piperazin-1-yl)oxypropionitrile], the figures for the IC50 against JAK1 and against JAK2 were 41.7 nM and 151 nM, respectively.
